Key:
[1] = tested on: caspase-3/7; experiment: Caspase-3/7 activity assay, 4T1 cells; assay type: cell-based, murine; conditions: 4T1, 5 hours, vs DMSO
Procedure: Caspase-3/7 activity assay. The Caspase-3/7 Fluorescence Assay Kit (Cayman, Ann Arbor, MI, USA) was used to detect the activation of caspase-3/7 and the assay was performed according to the manufacturer's instructions. Briefly, MDA-MB-231, SUM159, and 4T1 cells were seeded in a 96-well plate in triplicate. After overnight incubation, cells were treated with either LLL12B or DMSO for 5 hours. Cells were lysed and processed to measure caspase-3/7 activity and the fluorescence intensity was read (excitation=485 nm; emission=535 nm).

[2] = tested on: MDA-MB-231 cells; experiment: Annexin V and PI flow cytometry, MDA-MB-231 cells; assay type: cell-based, human; conditions: MDA-MB-231, 8-12 hours, vs DMSO
Procedure: Flow cytometry analysis. Flow cytometry was performed to detect cell apoptosis. The APC Annexin V Apoptosis Detection Kit (Biolegend, San Diego, CA, USA) was used for Annexin V staining. Cells were seeded in a 35 mm culture dish at a density of 1×10^5 cells/dish. After overnight incubation, cells were treated with DMSO or LLL12B for 8-12 hours. Cells were harvested and stained with Annexin V-APC and propidium iodide (PI) according to the manufacturer's instructions. After staining, cells were counted using a FACSCanto II flow cytometer (BD Biosciences, San Jose, CA, USA).

[3] = tested on: 4T1 cells; experiment: Colony formation assay, 4T1 cells; assay type: cell-based, murine; conditions: 4T1, 24 hours treatment, 7 days drug-free, vs DMSO
Procedure: Colony formation assay. MDA-MB-231, SUM159, and 4T1 cells were seeded in a 6-well plate at a density of 1000 cells/well and treated with DMSO or LLL12B for 24 hours, and then cultured in a drug-free culture medium for 7 days. Colonies were fixed with methanol for 30 min and stained with 1% crystal violet in 25% methanol for 2 hours at room temperature.

[4] = tested on: MDA-MB-231 cells; experiment: Wound healing assay, MDA-MB-231 cells; assay type: cell-based, human; conditions: MDA-MB-231, vs DMSO
Procedure: Wound healing assay. MDA-MB-231, SUM159, and 4T1 cells were seeded in a 6-well plate and cultured until fully confluent. A straight scratch crossing the monolayer was created using a 200 μl pipette tip and images of scratched areas were taken. Next, cells were treated with DMSO or LLL12B. Then, images were taken until the scratch of DMSO-treated cells was closed and the relative migration (%) was calculated.
Given the relevance between cancer cell migration and metastasis, cell migration was evaluated using wound healing assay following LLL12B and Talazoparib treatment.
In FIG. 12, L: LLL12B; T: Talazoparib; L0.5:0.5 μM LLL12B; L0.25:0.25 μM LLL12B; T0.5:0.5 μM Talazoparib; T10: 10 μM Talazoparib. In FIG. 13, L: LLL12B; T: Talazoparib; L0.5:0.5μ M LLL12B; T10: 10μ M Talazoparib; T20: 20μ M Talazoparib. In FIG. 14, L: LLL12B; T: Talazoparib; L0.5:0.5μ M LLL12B; T10: 10μ M Talazoparib; T20: 20μ M Talazoparib.
L: LLL12B; A: Abemaciclib; L0.5:0.5 μM LLL12B; A2.5:2.5 μM Abemaciclib; A1: 1 μM Abemaciclib

[5] = tested on: MDA-MB-231 orthotopic tumor; experiment: Orthotopic mammary fat pad tumor model in vivo; set-up: species or system athymic nude mice
Procedure: Orthotopic mammary fat pad tumor model in vivo. All mice were used under guidelines approved by the IACUC of University of Maryland School of Medicine. 6-week-old female athymic nude mice were purchased from The Jackson Laboratory (Bar Harbor, ME, USA). 2.5×10^6 MDA-MB-231 cells in 50 μl matrigel (BD Science, Franklin Lakes, NJ, USA) were inoculated into the 4th mammary fat pads bilaterally. After the tumor volume reached approximately 50 mm^3, mice were randomly divided into two groups (3 mice with 6 tumors in each group). LLL12B (2.5 mg/kg) or DMSO vehicle was administered daily by oral gavage for 28 days. Tumor size was measured by the length (L) and width (W) using a caliper ruler every 2 days. Tumor volume was calculated using 0.52×L×W^2. Body weight was monitored every 2 days. At the end of the experiment, tumors were removed and weighed. Part of the tumor tissue was lysed to detect the expression of P-STAT3 (Y705), STAT3, and Cyclin DI using Western blot analysis.
Female nude mice were implanted with MDA-MB-231 cells to establish an orthotopic tumor model to further evaluate LLL12B efficacy in vivo. MDA-MB-231 cells were inoculated into the 4th mammary fat pads and tumors were allowed to develop until the volume reached approximately 50 mm^3. Vehicle control or LLL12B (2.5 mg/kg) was administered once daily by oral gavage for 28 days.

[6] = tested on: HPAC cells; experiment: MTT cell viability assay, HPAC cells; assay type: cell-based, human; conditions: 3 days
Procedure: (§1) The human pancreatic cancer cell lines HPAC and PANC-1 were seeded and allowed to attach for 24 hours. Then cells were treated with different concentrations of LLL12B for 3 days and the cell viability was determined by MTT cell viability assay.

[7] = tested on: PANC-1 cells; experiment: MTT cell viability assay, PANC-1 cells; assay type: cell-based, human; conditions: PANC-1, 3 days
Procedure: as §1

[8] = tested on: HPAC cells; experiment: Wound healing assay, HPAC cells; assay type: cell-based, human; conditions: approximate 24 hours
Procedure: The inhibitory effects on cell migration by LLL12B in pancreatic cancer cells was also examined. The human HPAC pancreatic cancer cells were seeded and allowed to attach for 24 hours. Then cells were treated with different concentrations of LLL12B for approximate 24 hours and the cell migration was determined by wound healing assay.

[9] = tested on: medulloblastoma cells; conditions: refs [25,31]; cited from earlier work
[10] = 2.5 mg/kg once daily oral gavage 28 days, vs vehicle
[11] = Western blot, 2.5 mg/kg oral 28 days

CN(C)C(=O)Oc1cccc2c1C(=O)c1cccc(S(N)(=O)=O)c1C2=O [LLL12B]
activation of caspase-3/7 [1]: induced the activation | percentage of apoptotic cells [2]: significantly increased | colony numbers [3]: significant reduction | wound closure (cell migration) [4]: effectively inhibited | body weights [5, 10]: no obvious reduction | tumor volume [5, 10]: significantly reduced | tumor weight [5, 10]: reduced | Cyclin D1 expression in tumor tissues [5, 11]: suppressed | phosphorylation of STAT3 (Y705) in tumor tissues [5, 11]: suppressed | cell viability [6]: significantly inhibits | cell viability [7]: significantly inhibits | cell migration [8]: significantly inhibits | apoptosis [9]: induced apoptosis | tumor growth [9]: suppressed tumor growth
